Test results reported in patent US7960382B2, “Compounds and their use related to compositions for treating disease” (Allergan, Inc., priority 2005, dated 2011).

Experiments:
[1] = Formation of the compound in a brimonidine tartrate / timolol maleate composition stored at ambient temperature (age of composition); assay type: physicochemical; settings: for Compound Concentration (% weight/vol): composition initially 0.2% brimonidine tartrate and 0.68% timolol maleate, pH 6.9, ambient temperature
Description: The compound disclosed herein can also be used to estimate the age of a composition, stored at ambient temperature, initially comprising brimonidine tartrate and timolol maleate of known amounts and having a pH of 6.9. The age of the […] (λ) in months is determined by equation 3, where B^o, T^o, and C^o are the initial concentrations of brimonidine, timolol maleate, and the compound respectively, in % (w/v). λ=C^o/(1.1×10^−3(B^oT^o)) [eq. 3] Equation 3 is an approximation which assumes that B^o and T^o>>C^o. If that is not the case, the age is determined using the rate constant k=1.1×10^−3 month^−1%^−1 and the appropriate rate expression.
If the composition initially comprises 0.2% brimonidine tartrate and 0.68% timolol maleate. The age of the composition may be determined according to Table 2 below. Alternatively, up to about 36 months, the age is determined by multiplying the concentration of the compound in % (w/v) by 9100.

microbial attack [2] = test: Preservation of ophthalmic compositions from microbial attack; settings: brimonidine/timolol compositions of the invention
Description: Ophthalmic products are typically packaged in multidose form. Preservatives are thus required to prevent microbial contamination during use. Suitable preservatives include: benzalkonium chloride, thimerosal, chlorobutanol, methyl paraben, propyl paraben, phenylethyl alcohol, edetate disodium, sorbic acid, Onamer M, or other agents known to those skilled in the art. In the prior art ophthalmic products, typically such preservatives are employed at a level of from 0.004% to 0.02%. In the compositions of the present application the preservative, preferably benzalkonium chloride, may be employed at a level of from 0.001% to less than 0.01%, e.g. from 0.001% to 0.008%, preferably about 0.005% by weight. […] This concentration may be advantageously compared to the requirement of 0.01% benzalkonium chloride to preserve timolol in the individual, commercially-available ophthalmic products.

microbial attack [3] = settings: cited from earlier work

In the case of O=C(O)C1CC(=O)N2CCN=C2N1c1ccc2nccnc2c1Br (stereo not drawn) [Compound, 8-(5-bromoquinoxalin-6-yl)-5-oxo-2,3,5,6,7,8-hexahydroimidazo[1,2-a]pyrimidine-7-carboxylic acid], the “Compound Concentration (% weight/vol)” value ([1]; Age 1 month) is reported as 0.0001 % weight/vol, the “Compound Concentration (% weight/vol)” value ([1]; Age 2 months) is reported as 0.0002 % weight/vol and the “Compound Concentration (% weight/vol)” value ([1]; Age 3 months) is reported as 0.0003 % weight/vol. For the same compound, the “Compound Concentration (% weight/vol)” value ([1]; Age 4 months) was 0.0004 % weight/vol, the “Compound Concentration (% weight/vol)” value ([1]; Age 5 months) was 0.0006 % weight/vol and the “Compound Concentration (% weight/vol)” value ([1]; Age 6 months) was 0.0007 % weight/vol. For the same compound, the “Compound Concentration (% weight/vol)” value ([1]; Age 7 months) was 0.0008 % weight/vol, the “Compound Concentration (% weight/vol)” value ([1]; Age 8 months) was 0.0009 % weight/vol and the “Compound Concentration (% weight/vol)” value ([1]; Age 9 months) was 0.001 % weight/vol. For the same compound, the “Compound Concentration (% weight/vol)” value ([1]; Age 10 months) was 0.0011 % weight/vol, the “Compound Concentration (% weight/vol)” value ([1]; Age 11 months) was 0.0012 % weight/vol and the “Compound Concentration (% weight/vol)” value ([1]; Age 12 months) was 0.0013 % weight/vol. The “Compound Concentration (% weight/vol)” value ([1]; Age 13 months) was 0.0014 % weight/vol, the “Compound Concentration (% weight/vol)” value ([1]; Age 14 months) was 0.0016 % weight/vol and the “Compound Concentration (% weight/vol)” value ([1]; Age 15 months) was 0.0017 % weight/vol. The “Compound Concentration (% weight/vol)” value ([1]; Age 16 months) was 0.0018 % weight/vol, the “Compound Concentration (% weight/vol)” value ([1]; Age 17 months) was 0.0019 % weight/vol and the “Compound Concentration (% weight/vol)” value ([1]; Age 18 months) was 0.0020 % weight/vol. The “Compound Concentration (% weight/vol)” value ([1]; Age 19 months) was 0.0021 % weight/vol, the “Compound Concentration (% weight/vol)” value ([1]; Age 20 months) was 0.0022 % weight/vol and the “Compound Concentration (% weight/vol)” value ([1]; Age 21 months) was 0.0023 % weight/vol. The “Compound Concentration (% weight/vol)” value ([1]; Age 22 months) was 0.0024 % weight/vol, the “Compound Concentration (% weight/vol)” value ([1]; Age 23 months) was 0.0026 % weight/vol and the “Compound Concentration (% weight/vol)” value ([1]; Age 24 months) was 0.0027 % weight/vol. For the same compound, the “rate constant k (formation of the compound from brimonidine tartrate and timolol maleate)” value ([1]; composition stored at ambient temperature, pH 6.9) was 1.1×10^−3 month^−1%^−1.
For benzalkonium chloride, the “concentration sufficient to preserve the compositions of the present invention from microbial attack” value (microbial attack [2]) is listed as 0.005% and the “concentration required to preserve timolol in the individual, commercially-available ophthalmic products” value (microbial attack [3]) is listed as 0.01%.
